According to article PMC12027149 (International Journal of Molecular Sciences, 2025):
Where “and” joins values, the source holds several entries; their conditions need not be identical. Equal entries are not always repeated. Where two headings read alike, the source gives them in different places.

What was measured:
[1] = MTT cytotoxicity assay on differentiated SH-SY5Y cells; type: cell-based, human; conditions: human, 0.05–5 mM; for CC50 at 24 h: differentiated SH-SY5Y, MTT reduction assay, Hill fit, read-out: LC50
Protocol: (§1) The SH–SY5Y cell line (DSMZ code: ACC 209) was supplied by the German Collection of Microorganisms and the Cell Culture GmbH (DSMZ) biobank and was cultured according to the supplier’s information. Cells were grown in DMEM:F12 (Dulbecco’s Modified Eagle’s Medium/F12), supplemented with 10% fetal bovine serum (FBS) and 1% antibiotic–antimycotic in a humidified atmosphere with 5% CO2 at 37 °C. Subculture was performed according to biobank instructions when the cultures reached 80–85% of confluence.
(§2) SH-SY5Y cells were trypsinized (trypsin/EDTA; 0.25%) and the cell suspension was seeded in 96-well plates at a density of 2 × 10^4 cells/well and incubated until reaching 80-85% confluence. Cells were differentiated to obtain a dopaminergic neuronal phenotype according to Ferreira et al. with slight modifications (Figure 10). To ensure reproducibility and optimal neuronal differentiation, cells were used between passages (15–25). Briefly, cells were seeded in complete DMEM:F12 medium containing 10 µM retinoic acid (RA) and 2.5% fetal bovine serum (FBS) and maintained for 4 days, with the medium changed on day 2. After this time, the medium was replaced by DMEM:F12 supplemented with 10 µM RA, 80 nM 12-O-tetradecanoylphorbol-13-acetate (TPA), and 2.5% FBS, and the cells were maintained for an additional 4 days (with the medium changed at day 6). The cytotoxicity assay was performed on day 8.
(§3) The SH-SY5Y cells’ viability was evaluated after exposure for 24 h to […]. The 3-(4,5-dimethylthiazol-2-yl) − 2,5-diphenyltetrazolium bromide (MTT) colorimetric assay was performed following the methodology described by Joana Silva et al.. The experimental dose–response results were fitted to the Hill’s sigmoidal non-linear regression model. For each cathinone, the LC50 values (cathinone concentration showing 50% lethality) and their confidence interval at the 95% confidence level ([CI]) were determined. The Hill slope, also known as the Hill coefficient, which describes the steepness of a dose–response curve, and the minimum observable adverse effect concentration (LOAEL) were also determined for all cathinones.

[2] = system: differentiated SH-SY5Y cells; test: as above; type: cell-based, human; conditions: lowest observed adverse effect level, differentiated SH-SY5Y, 24 h, MTT
Protocol: as §1, §2, §3

[3] = biological target: T1, Acetylcholinesterase (AChE, EC 3.1.1.7) (Electrophorus electricus, UniProt O42275); test: Acetylcholinesterase inhibition, modified Ellman colorimetric method; type: biochemical; conditions: for Hillslope: AChE inhibition dose–response curve; for LOAEL / IC50: Ellman assay; for IC50: 0.03–2 mM, Hill fit; for maximum inhibition of AChE among the tested concentrations: 0.03 to 2 mM
T1 construct: purchased Sigma-Aldrich
T1 sequence (O42275 24-633): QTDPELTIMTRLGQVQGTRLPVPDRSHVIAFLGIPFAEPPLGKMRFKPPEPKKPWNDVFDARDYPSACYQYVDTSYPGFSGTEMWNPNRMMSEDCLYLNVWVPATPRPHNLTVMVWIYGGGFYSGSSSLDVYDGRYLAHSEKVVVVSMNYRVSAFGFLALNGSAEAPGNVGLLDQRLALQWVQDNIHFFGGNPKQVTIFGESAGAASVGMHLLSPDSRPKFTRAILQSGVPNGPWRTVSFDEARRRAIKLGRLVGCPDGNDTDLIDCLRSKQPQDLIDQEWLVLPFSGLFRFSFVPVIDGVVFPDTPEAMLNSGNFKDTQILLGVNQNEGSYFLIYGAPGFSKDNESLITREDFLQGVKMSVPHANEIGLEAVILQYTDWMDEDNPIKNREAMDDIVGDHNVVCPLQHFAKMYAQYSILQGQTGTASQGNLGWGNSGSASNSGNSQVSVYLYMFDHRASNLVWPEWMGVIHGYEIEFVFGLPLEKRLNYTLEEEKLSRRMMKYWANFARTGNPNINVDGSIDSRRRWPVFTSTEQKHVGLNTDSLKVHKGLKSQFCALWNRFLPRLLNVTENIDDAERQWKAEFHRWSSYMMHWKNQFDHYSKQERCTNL
Protocol: Acetylcholinesterase (AChE, EC 3.1.1.7) enzymatic activity was assessed using a modified version of Ellman’s colorimetric method, as described by Falé et al.. In this assay, a mixture of 325 μL of 50 mM Tris-HCl buffer (pH 8), 100 μL of a cathinone solution, and 25 μL of AChE (0.1 U/mL in 50 mM Tris–HCl buffer pH 8) were incubated. After a 15 min incubation period, 75 μL of AChI (0.33 mg/mL) was added to 475 μL of DTNB (dithiobis (2-nitrobenzoic acid)) (1.2 mg/mL in Tris–HCl buffer (pH 8) containing 0.1 M NaCl and 0.02 M MgCl2). A control reaction, representing 100% activity, was performed using the same volume of water instead of the cathinone solution. The initial velocity of the enzymatic reaction was measured at 405 nm for 5 min, with all assays carried out in duplicate. The percentage of AChE activity inhibition for different concentrations of cathinones [0.03–2 mM] was determined as the ratio of the initial velocity in the cathinone presence to the initial velocity of the control reaction. Experimental results were fitted to Hill’s sigmoidal dose–response non-linear regression model to determine IC50 values (cathinone concentration showing 50% inhibition), along with their confidence interval at the 95% confidence level ([CI]). The Hill slope coefficients that provide the steepest value of the slope of the dose–response curve and the minimum observable adverse effect concentration (LOAEL) for all cathinones were also determined.

SH-SY5Y cells = test: Mitochondrial membrane potential (JC-1 probe); type: cell-based, human; conditions: 6 h treatment at LC50, JC-1
Protocol: Mitochondrial membrane potential (MMP) was estimated by using the JC-1 fluorescent probe (Molecular Probes, Eugene, OR, USA) as described in Silva et al., 2022 [65]. The formation of JC-1 aggregates (excitation λ: 490 nm; emission λ: 590 nm) and monomers (excitation λ: 490 nm; emission λ: 530 nm) was measured for 30 min using a plate reader (Bio-Tek Synergy plate reader, Bedfordshire, UK). Changes in MMP were calculated as the ratio between JC-1 monomers and aggregates and expressed as a percentage of the control. An FCCP (2.5 µM) and oligomycin A (1 mg/mL) conjugate solution was used as the positive control. All data were obtained from at least three independent experiments (n = 3) and were presented as mean ± standard error of the mean (SEM).

SMILES	CC50 at 24 h [1] [µM]	LOAEL [2]	Hillslope [3]	LOAEL ([3]; AChE inhibition)	IC50 ([3]; IC50, AChE inhibition) [µM]	maximum inhibition of AChE among the tested concentrations [3] [%]	inhibition at 2000 µM ([3]; highest tested concentration of 2 mM) [%]	Emax at 24 h ([1]; MTT, read-out: maximum response (cytotoxicity)) [%]	IC50 ([3]; AChE inhibition, read-out: IC50) [µM]	MMP depolarization (SH-SY5Y cells)
CNC(C)C(=O)c1ccccc1Cl (racemic) [2-CMC (1), (R,S)-1-(2-chlorophenyl)-2-(methylamino)propan-1-one]	1700	1 mM and 1.0 mM	2.5	0.250 mM	700					
CC(C(=O)c1ccccc1Cl)N1CCCC1 (racemic) [2-Cl-PPP (9), (R,S)-1-(2-chlorophenyl)-2-(pyrrolidine-1-yl)propan-1-one]	1600	0.5 mM	1.5	0.125 mM	300	81				
CCNC(C)C(=O)c1cccc(Cl)c1 (racemic) [3-CEC (5), (R,S)-1-(3-chlorophenyl)-2-(ethylamino)propan-1-one]	1300	0.5 mM	1.3	0.250 mM	800					
CC(C(=O)c1ccc(Cl)cc1)N(C)C (racemic) [4-CDC (14), (R,S)-1-(4-chlorophenyl)-2-(dimethylamino)propan-1-one]	1500	1 mM and 1.0 mM	2.9	0.500 mM and 0.50 mM	700					
CC(C(=O)c1cccc(Cl)c1)N(C)C (racemic) [3-CDC (13), (R,S)-1-(3-chlorophenyl)-2-(dimethylamino)propan-1-one]	1800	1 mM and 1.0 mM	1.2	0.250 mM	900					
CNC(C)C(=O)c1ccc(Cl)cc1 (racemic) [4-CMC (3), (R,S)-1-(4-chlorophenyl)-2-(methylamino)propan-1-one]	1300	0.1 mM	1.5	0.250 mM	~2000		47			
CCNC(C)C(=O)c1ccc(Cl)cc1 (racemic) [4-CEC (6), (R,S)-1-(4-chlorophenyl)-2-(ethylamino)propan-1-one]	1300	0.1 mM	1.2	0.250 mM	1200					
CC(C(=O)c1ccc(Cl)cc1)N1CCCC1 (racemic) [4-Cl-PPP (11), (R,S)-1-(4-chlorophenyl)-2-(pyrrolidine-1-yl)propan-1-one]	1800	0.5 mM	1.1	0.250 mM	500					
CNC(C)C(=O)c1ccc(C)cc1 (centres unmarked) [Mephedrone (M), Mephedrone, reference compound]	2100	0.5 mM	8.6	0.750 mM	800			73		
CC(NC(C)(C)C)C(=O)c1cccc(Cl)c1 (racemic) [3-Cl-TBC (19), (R,S)-2-(tert-butylamino)-1-(3-chlorophenyl)propan-1-one]	1000	0.5 mM	0.9	0.250 mM					1000	
CCNC(C)C(=O)c1ccccc1Cl (racemic) [2-CEC (4), (R,S)-1-(2-chlorophenyl)-2-(ethylamino)propan-1-one]	1600	0.5 mM	4.3	0.500 mM	600	85				
CCCCNC(C)C(=O)c1cccc(Cl)c1 (racemic) [3-CBC (7), (R,S)-2-(butylamino)-1-(3-chlorophenyl)propan-1-one]	700	0.1 mM	1.4	0.125 mM	400					more pronounced MMP depolarization than the other cathinones
CC(C)NC(C)C(=O)c1cccc(Cl)c1 (racemic) [3-CIC (17), (R,S)-1-(3-chlorophenyl)-2-(isopropylamino)propan-1-one]	1600	1 mM and 1.0 mM	0.8	0.063 mM	200					
CC(C(=O)c1ccccc1Cl)N(C)C (racemic) [2-CDC (12), (R,S)-1-(2-chlorophenyl)-2-(dimethylamino)propan-1-one]	1300	1 mM and 1.0 mM	2.5	0.250 mM	700					
CC(C(=O)c1cccc(Cl)c1)N1CCCC1 (racemic) [3-Cl-PPP (10), (R,S)-1-(3-chlorophenyl)-2-(pyrrolidine-1-yl)propan-1-one]	2500	0.1 mM	1.8	0.125 mM	400					
CCN(CC)C(C)C(=O)c1ccc(Cl)cc1 (racemic) [4-Cl-DEC (16), (R,S)-1-(4-chlorophenyl)-2-(diethylamino)propan-1-one]	1000	1 mM and 1.0 mM	0.8	0.063 mM	100					
CC(C)NC(C)C(=O)c1ccc(Cl)cc1 (racemic) [4-CIC (18), (R,S)-1-(4-chlorophenyl)-2-(isopropylamino)propan-1-one]	1400	1 mM and 1.0 mM	2.0	0.375 mM	1100					
CNC(C)C(=O)c1cccc(Cl)c1 (racemic) [3-CMC (2), (R,S)-1-(3-chlorophenyl)-2-(methylamino)propan-1-one]	2300	1 mM and 1.0 mM	3.7	0.500 mM	800					
CCCCNC(C)C(=O)c1ccc(Cl)cc1 (racemic) [4-CBC (8), (R,S)-2-(butylamino)-1-(4-chlorophenyl)propan-1-one]	600	0.5 mM	5.1	0.100 mM	1300					more pronounced MMP depolarization than the other cathinones
